Converted amounts (≈) assume the structure as drawn.
Legend:
[1] = Particle size determination by light scattering; format: physicochemical; conditions: for Average % of particles below 10 μm / Average % of particles below 100 μm / Average % of particles below 200 μm: average of 3 samples; for Volume Mean Particle Diameter: light scattering
Excerpt: Light scattering techniques were employed to assess the particle size distributions of samples of the compositions of Examples 1 and 2 and Comparative Example 1.

[2] = Salicylic acid release into artificial sweat; format: physicochemical; conditions: 35° C.
Experimental: FIG. 1 illustrates salicylic acid release at 35° C. Samples of Example 1 (square), Example 2 (triangle) and Comparative Example 1 (diamond) were placed in artificial sweat or artificial sweat plus proteins and incubated at 35° C. for 3 to 5 minutes, 1, 2, 4, 6 and 24 hours, rapidly filtered (0.22 μm filter) and analyzed for salicylic acid by HPLC.
Samples of Example 1 and 2 and Comparative Example 1 were placed in artificial sweat or artificial sweat plus proteins and incubated at 35° C. for 3 to 5 minutes, 1, 2, 4, 6 and 24 hours, rapidly filtered (0.22 μm filter) and analyzed for salicylic acid by HPLC.

[3] = tested on: human derived Staphylococcus epidermidis; assay: Minimum Inhibitory Concentration (MIC) assessment, Staph epidermidis; format: cell-based; conditions: for antibacterial activity (in words): MIC test, summary of Table 3; for MIC: Staphylococcus epidermidis, 24 hours, particle suspensions in water, read-out: MIC versus Staph epidermidis
Experimental: (§1) Samples of Examples 1 and 2 and Comparative Example 1 were evaluated in two different bacterial growth assays. The first test was a standard Minimum Inhibitory Concentration (MIC) assessment involving serial dilution of test compound particle suspensions in water. In this test, the samples were evaluated at 24 hours against human derived Staphylococcus epidermidis and Corynebacter sp. form organisms. The second test utilized a Biosys® system to assess the effect of the samples added as a dry powder directly to a nutrient broth containing either human derived Staph epidermidis or a mixed Coryne/Staph milieu. In the case of the Biosys test, the bacteria laced nutrient broth alone was used as the negative control.

[4] = tested on: Corynebacter sp. form organisms; assay: Minimum Inhibitory Concentration (MIC) assessment, Coryne form; format: cell-based; conditions: 24 hours, particle suspensions in water; read-out: MIC versus Coryne form
Experimental: as §1

[5] = tested on: human derived Staph epidermidis; assay: Biosys bacterial growth test, Staph epidermidis; format: cell-based, Staphylococcus epidermidis; conditions: for % Red (average reduction in bacterial growth rates): 24 hours
Experimental: as §1

[6] = tested on: mixed Coryne/Staph milieu; assay: Biosys bacterial growth test, mixed Coryne/Staph; format: cell-based, Corynebacter/Staph; conditions: for % Red (average reduction in bacterial growth rates): 24 hours
Experimental: as §1

[7] = Hydrolytic release of salicylic acid in buffer at 32° C., HPLC; format: physicochemical; conditions: acetate buffer pH 5.5, 32° C.
Experimental: Examples 1, 3 and 4 (both A & B) and Comparative Examples 1 and 2 were evaluated for rate of release of salicylic acid. Samples were hydrolyzed at 32° C. using acetate buffer (pH 5.5) as relevant condition for typical skin pH. The materials were placed in 50 mL centrifuge tubes for elution using conventional elution protocols, shaking the tubes in a thermostatic environment. Aliquots were taken from the tubes at periodic intervals and immediately placed in a vial and analyzed by HPLC as soon as they were removed from the hydrolysis vessel.
The respective salicylic acid release rates of the Example 4A and Example 4B at pH 5.5 are compared in FIG. 5. The rates of Example 4B at pH of 5.5 and 7.29 are compared in FIG. 6.

Row | SMILES | Average % of particles below 10 μm [1] [%] | Average % of particles below 100 μm [1] [%] | Average % of particles below 200 μm [1] [%] | Volume Mean Particle Diameter [1] [μm] | salicylic acid release rate (in words) [2] | Salicylic Acid Release (Weight Percent of Maximum Release) ([2]; 0.05 hrs) | Salicylic Acid Release (Weight Percent of Maximum Release) ([2]; 1 hr) | Salicylic Acid Release (Weight Percent of Maximum Release) ([2]; 2 hrs) | Salicylic Acid Release (Weight Percent of Maximum Release) ([2]; 4 hrs) | Salicylic Acid Release (Weight Percent of Maximum Release) ([2]; 6 hrs) | Salicylic Acid Release (Weight Percent of Maximum Release) ([2]; 24 hrs) | antibacterial activity (in words) [3] | MIC [3] [µg/mL] | % Red (average reduction in bacterial growth rates) ([5]; 0.25 mg/ml) [%] | % Red (average reduction in bacterial growth rates) ([5]; 0.5 mg/ml) [%] | % Red (average reduction in bacterial growth rates) ([5]; 2.5 mg/ml) [%] | % Red (average reduction in bacterial growth rates) ([5]; 5 mg/ml) [%] | % Red (average reduction in bacterial growth rates) ([5]; 50 mg/ml) [%] | % Red (average reduction in bacterial growth rates) ([6]; 0.25 mg/ml) [%] | % Red (average reduction in bacterial growth rates) ([6]; 0.5 mg/ml) [%] | further results
1 | O=C(CCCCC(=O)Oc1ccccc1C(=O)O)Oc1ccccc1C(=O)O [Comparative Example 1, Bis(2-carboxyphenyl)adipate, reference compound] | 32.1 | 96.03 | 99.99 | 28.85 | more moderate | 1.46 Weight Percent of Maximum Release | 4.93 Weight Percent of Maximum Release | 6.03 Weight Percent of Maximum Release | 6.81 Weight Percent of Maximum Release | 10.06 Weight Percent of Maximum Release | 26.42 Weight Percent of Maximum Release | little or no | > 1670 | 0 | 57 | 63 | 100 | 100 | 0 | 5 | MIC [4]: > 1670 µg/mL; % Red (average reduction in bacterial growth rates) ([6]; 2.5 mg/ml): 6%; % Red (average reduction in bacterial growth rates) ([6]; 5 mg/ml): 100%; % Red (average reduction in bacterial growth rates) ([6]; 50 mg/ml): 100%; hydrolysis completion ([7]; in four days): about 90%
2 | O=C(COCC(=O)Oc1ccccc1C(=O)O)Oc1ccccc1C(=O)O [Example 1, Bis(2-carboxyphenyl)diglycolate] | 11.87 | 91.69 | 99.58 | 45.64 | rapid initial | 20.035 Weight Percent of Maximum Release | 45.525 Weight Percent of Maximum Release | 54.910 Weight Percent of Maximum Release | 59.795 Weight Percent of Maximum Release | 54.890 Weight Percent of Maximum Release | 64.520 Weight Percent of Maximum Release | strongest | 200 to 1000 (≈ 0.534 to 2.67 mM) | 10 | 95 | 100 | 100 | 100 | 66 | 29 | MIC [4]: ~200 µg/mL (≈ 0.534 mM); antibacterial activity (in words) ([5]; Biosys, summary of Table 4): strongest; % Red (average reduction in bacterial growth rates) ([6]; 2.5 mg/ml): 100%; % Red (average reduction in bacterial growth rates) ([6]; 5 mg/ml): 100%; % Red (average reduction in bacterial growth rates) ([6]; 50 mg/ml): 100%; antibacterial activity (in words) ([6]; Biosys, summary of Table 5): strongest; time until hydrolysis is complete [7]: 2.5 h
3 | O=C(COCCOCC(=O)Oc1ccccc1C(=O)O)Oc1ccccc1C(=O)O [Example 2, Bis(2-carboxyphenyl)-3,6-dioxaoctanedioate] | 37.54 | 80.89 | 99.39 | 48.82 | rapid initial | 35.25 Weight Percent of Maximum Release | 47.44 Weight Percent of Maximum Release | 44.85 Weight Percent of Maximum Release | 46.07 Weight Percent of Maximum Release | 51.20 Weight Percent of Maximum Release | 58.23 Weight Percent of Maximum Release | modest | ~2500 (≈ 5.98 mM) | 0 | 0 | 50 | 100 | 100 | 5 | 0 | Particle size distribution, Comments [1]: Bimodal size; % Red (average reduction in bacterial growth rates) ([6]; 2.5 mg/ml): 100%; % Red (average reduction in bacterial growth rates) ([6]; 5 mg/ml): 100%; % Red (average reduction in bacterial growth rates) ([6]; 50 mg/ml): 100%

Reference: patent publication US10092578B2, “Active agents and their oligomers and polymers” (Polymerix Corporation, priority 2006, dated 2018)
